# What was measured:
# [1] = tested on: Ser^1981 in ATM; experiment: Ser^1981 phosphorylation of ATM in primary fibroblasts after treatment with agents; type: cell-based, human; conditions: for Phosphorylation of ATM: over one and five hours after exposure
# Protocol: Another aspect of the present invention provides a method of detecting DNA damage in a cell by identifying the activation state of ATM kinase.
# 293T cells, HeLa cells and 1070SK primary human foreskin fibroblasts (HFF) (>passage 20, ATCC) were cultured in Dulbecco's Modification of Eagle's Medium (DMEM) supplemented with 10% fetal bovine serum (FBS). GM00637 and GM09607 fibroblasts were grown in DMEM containing 15% FBS. GM00536 lymphoblast cells were grown in RPMI supplemented with 10% fetal calf serum. 293T cells were transfected using FUGENE™ (Roche, Indianapolis, Ind.) and HeLa cells, GM00637 and GM09607 with LIPOFECTAMINE™ (INVITROGEN™ Corp., Carlsbad, Calif.). Metabolic labeling was performed by pre-equilibrating cells in phosphate-free media for three hours prior to the addition of 0.5 mCi/ml ^32P orthophosphate (PerkinElmer Life Sciences Inc., Boston, Mass.) for 30 minutes. Inhibition of DNA synthesis and analysis of G2/M checkpoint after irradiation was assessed using well-known methods (e.g., Xu, et al. (2001) Mol. Cell. Biol. 21:3445-3450). Wortmannin was added to samples on ice 15 minutes prior to reactions and 5 μM manganese and 1 μg sonicated calf thymus DNA were present or absent. Proteins were crosslinked by incubating cells in formaldehyde/phosphate-buffered saline (PBS) for 10 minutes at room temperature. Formaldehyde was washed out using PBS containing 100 mM glycine and immunoprecipitation was then performed. Hypotonic swelling was performed for 1 hour in PBS containing 0.45% glucose (w/v) and 1% FBS with the NaCl concentration reduced to either 50 mM or 100 mM. HFF were incubated with chloroquine in DMEM containing 10% FBS for four hours. Prior to an eight hour incubation with Trichostatin A, HFF was grown for 24 hours in DMEM containing 0.1% FBS. […] For immunofluoresence experiments, HFF grown on glass slides were fixed in 50% methanol/50% acetone for two hours at −20° C. Cells were incubated with primary antibodies at 1/1000 (H2AXγ; Upstate, Charlottesville, Va.) and secondary antibodies at 1/500 (Cy3 anti-mouse and FITC anti-rabbit; Jackson ImmunoResearch Laboratories, Inc., West Grove, Pa.) in PBS, 10% FBS for one hour.
# Mammalian cell extracts were prepared in buffer A. Cleared supernatants were immunoprecipitated with anti-FLAG® M2 sepharose or anti-ATM D1611 (Alligood, et al. (2000) Hybridoma 19:317-321) and protein A/G agarose. Beads were washed twice with buffer A and twice with RIPA buffer. Co-immunoprecipitation was performed in buffer B: 50 mM Tris (pH 7.5), 150 mM NaCl, 0.5% TWEEN® 20, 0.2% NP-40, 50 mM NaF, 1 mM AEBSF, and 1x protease inhibitor mixture (Roche, Indianapolis, Ind.).
# Western blotting was performed with anti-FLAG® M5 (Sigma-Aldrich, St. Louis, Mo.), anti-ATM MAT3, anti-GST (Amersham Pharmacia Biotech, Uppsala, Sweden) or anti-6x-His (Sigma-Aldrich, St. Louis, Mo.).
# [2] = tested on: ATM protein; experiment: ATM phosphorylation after chromatin-modifying treatments (immunoblot and immunofluorescence); type: cell-based, human
# Source text: Since such a high fraction of cellular ATM becomes phosphorylated so rapidly in the presence of so few DNA strand breaks, it is unlikely that the ATM oligomers could require direct binding to DNA strand breaks for activation and autophosphorylation. Therefore, the introduction of DNA strand breaks may cause a change in the nucleus that activates ATM at a distance from the break itself. As DNA strand breaks introduced by ionizing irradiation rapidly alter topological constraints on DNA (Roti Roti and Wright (1987) Cytometry 8:461-467; Jaberaboansari, et al. (1988) Radiat. Res. 114:94-104; Malyapa, et al. (1996) Int. J. Radiat. Oncol. Biol. Phys. 35:963-973),alterations in some aspect of chromatin structure fit the criteria of being a rapid change and being able to act a distance in the nucleus. Chromatin and chromosome structures can be altered in the absence of DNA breaks by hypotonic conditions (Earnshaw, and Laemmli (1983) J. Cell Biol. 96:84-93; Jeppesen, et al. (1992) Chromosoma 101:322-332), exposure to chloroquine (Krajewski (1995) FEBS Letters 361:149-152; Jensen, et al. (1994) Cancer Res. 54:2959-2963; Snyder (2000) Environ. Mol. Mutagen. 35:13-21), or treatment with histone deaceylase inhibitors (Krajewski (1999) J. Biomol. Struct. Dynam. 16:1097-1106; Yoshida, et al. (1995) BioEssays 17:423-430; Kuo and Allis (1998) BioEssays 20:615-626). […]
# [3] = tested on: HeLa cells; experiment: Radioprotection assay (colony formation after irradiation); type: cell-based; conditions: for Average Number of Colonies*: 2 μg/ml chloroquine one hour, washed one hour, 1000 cells plated
# Protocol: HeLa cells were treated with 2 μg/ml of chloroquine for one hour, washed for one hour, and irradiated at 2 or 6 Gy. Subsequently, 1000 cells were plated and assessed for colony formation.
# [4] = tested on: HFF; experiment: Cell death of HFF during incubation; conditions: HFF incubated with chloroquine four hours
# Protocol: 293T cells, HeLa cells and 1070SK primary human foreskin fibroblasts (HFF) (>passage 20, ATCC) were cultured in Dulbecco's Modification of Eagle's Medium (DMEM) supplemented with 10% fetal bovine serum (FBS). GM00637 and GM09607 fibroblasts were grown in DMEM containing 15% FBS. GM00536 lymphoblast cells were grown in RPMI supplemented with 10% fetal calf serum. 293T cells were transfected using FUGENE™ (Roche, Indianapolis, Ind.) and HeLa cells, GM00637 and GM09607 with LIPOFECTAMINE™ (INVITROGEN™ Corp., Carlsbad, Calif.). Metabolic labeling was performed by pre-equilibrating cells in phosphate-free media for three hours prior to the addition of 0.5 mCi/ml ^32P orthophosphate (PerkinElmer Life Sciences Inc., Boston, Mass.) for 30 minutes. Inhibition of DNA synthesis and analysis of G2/M checkpoint after irradiation was assessed using well-known methods (e.g., Xu, et al. (2001) Mol. Cell. Biol. 21:3445-3450). Wortmannin was added to samples on ice 15 minutes prior to reactions and 5 μM manganese and 1 μg sonicated calf thymus DNA were present or absent. Proteins were crosslinked by incubating cells in formaldehyde/phosphate-buffered saline (PBS) for 10 minutes at room temperature. Formaldehyde was washed out using PBS containing 100 mM glycine and immunoprecipitation was then performed. […]
# [5] = tested on: Ser^1981 of ATM; experiment: Ser^1981 phosphorylation following irradiation of human diploid fibroblasts; type: cell-based
# Protocol: Autophosphorylation of Ser^1981 was determined using glutathione-S-transferase (GST) fusion proteins containing various lengths of ATM as substrates of the ATM kinase in in vitro kinase reactions. A polypeptide containing the appropriate serine residue at 1981 was an excellent in vitro substrate, whereas a Ser^1981→Ala mutant was not phosphorylated by ATM whether the read-out was incorporation of radioactive phosphate or binding by the α-Ser^1981-P antibody. […] This concentration of wortmannin inhibits both ATM and DNA-dependent protein kinase (DNA-PK), but not ataxia- and Rad3-related protein (ATR), in vivo (Sarkaria, et al. (1998) Cancer Res. 58:4375-4382). To exclude DNA-PK as a responsible kinase, phosphorylation of Ser^1981 was determined in a cell line lacking DNA-PK activity. The kinetics and levels of IR-induced phosphorylation of Ser^1981 were identical to those in a similar cell line containing DNA-PK activity.
# [6] = one hour following exposure, 2 nM camptothecin, 17 nM etoposide or 0.1% H2O2
structure (smiles),measurement,setting,value
OO [H2O2],Phosphorylation of Ser^1981 in ATM,[1]; [6],detected
C[C@@]1(CO)[C@H](O)CC[C@@]2(C)[C@H]1CC[C@H]1C[C@@H]3C[C@@]12CC[C@]3(O)CO [aphidicolin],Phosphorylation of ATM,[1],Little or no phosphorylation
Cc1cn([C@H]2C[C@H](O)[C@@H](CO)O2)c(=O)[nH]c1=O [thymidine],Phosphorylation of ATM,[1],Little or no phosphorylation
"CC(/C=C/C(=O)NO)=C\[C@@H](C)C(=O)c1ccc(N(C)C)cc1 [Trichostatin, Trichostatin A]",phosphorylation of ATM protein,[2],induced rapid and diffuse phosphorylation
CCN(CC)CCCC(C)Nc1ccnc2cc(Cl)ccc12 (stereo not shown) [chloroquine],Average Number of Colonies*,[3]; irradiated at 2 Gy,580
same,Average Number of Colonies*,[3]; irradiated at 6 Gy,129
same,increase in cell survival by treatment prior to irradiation,"[3]; HeLa cells, chloroquine prior to irradiation",30%
same,cell death,[4],No cell death was observed
same,phosphorylation of ATM protein,[2],induced rapid and diffuse phosphorylation
"COS(C)(=O)=O [MMS, methlymethanesulfonate]",Phosphorylation of Ser^1981 in ATM,"[1]; five hours after treatment, compared with one hour",more prominent phosphorylation
NC(=O)NO [hydroxyurea],Phosphorylation of ATM,[1],Little or no phosphorylation
CC[C@@]1(O)C(=O)OCc2c1cc1n(c2=O)Cc2cc3ccccc3nc2-1 [camptothecin],Phosphorylation of Ser^1981 in ATM,[1]; [6],detected
COC[C@H]1OC(=O)c2coc3c2[C@@]1(C)C1=C(C3=O)[C@@H]2CCC(=O)[C@@]2(C)C[C@H]1OC(C)=O [wortmannin],concentration effectively inhibiting phosphorylation of Ser^1981,[5],≥ 20 µM

# Source: patent US7279290B2, “ATM kinase compositions and methods” (St. Jude Children's Research Hospital, priority 2002, dated 2007)
